Measured values as given in PMC9369442, “Synthetic Peucedanocoumarin IV Prevents α-Synuclein Neurotoxicity in an Animal Model of Parkinson’s Disease” (International Journal of Molecular Sciences, 2022).
Read-outs that look alike come from different tables or passages of the source.

Experiments:
[1] = set-up: method as in PMID 31689937; conditions: intraperitoneal administration in mice; cited from earlier work
[2] = Dissolution in dosing vehicle; type: physicochemical; conditions: DMSO:PEG400:saline ratio of 5:70:25
Procedure: In vivo rat pharmacokinetic studies were performed for intravenous and oral administration of PCiv as previously reported. Sprague-Dawley rats (8 weeks old, 260–280 g) were purchased from Orient Bio Inc. (Seongnam, Korea). Rats were maintained with free access to food and water under a 12:12 h light/dark cycle for 1 week. For pharmacokinetic studies, under anesthetic conditions (20 mg/kg tiletamine/zolazepam [Zoletil; Vibrac Laboratories, Carros, France] administered intramuscularly), the femoral vein and artery were surgically cannulated using polyethylene tubing (PE50; Clay Adams, Parsippany, NJ, USA) in fasted rats. Then, PCiv was administered intravenously and orally at a dose of 10 mg/kg (n = 4–5). The drug was dissolved in a vehicle (DMSO:PEG400:saline at a ratio of 5:70:25). Blood samples (approximately 100 μL) were collected at predetermined time points (0, 1, 5 (intravenous administration only), 15, 30, 60, 120, 180, 240, 360, and 480 min) after drug administration. […] The PCiv level was determined using a CapcellpakTM C18 5 μm column (250 × 1.5 mm, Shiseido Fine Chemical Co., Tokyo, Japan), as previously described. […] The tissue concentration levels were calculated as the PCiv amount (ng) per gram of organ weight.

[3] = Rat pharmacokinetics after intravenous and oral administration; type: in vivo; conditions: 10 mg/kg, rats
Procedure: Figure 3 Pharmacokinetic analysis and tissue distribution of PCiv. (A) Pharmacokinetic analysis of blood PCiv levels at each indicated time point following intravenous or oral administration of PCiv (10 mg/kg) determined by ultra-performance liquid chromatography (n = 4 rats for oral and 5 rats for intravenous administration). (B) Quantification of PCiv levels in each indicated tissue (ng/g tissue weight) determined by ultra-performance liquid chromatography (n = 3 rats, tissues collected 15 min after intravenous PCiv administration (10 mg/kg). PCiv was dissolved in a vehicle (DMSO:PEG400:saline ratio of 5:70:25) for solubilization. The quantified data are expressed as means ± standard deviations.
In vivo rat pharmacokinetic studies were performed for intravenous and oral administration of PCiv as previously reported. Sprague-Dawley rats (8 weeks old, 260–280 g) were purchased from Orient Bio Inc. (Seongnam, Korea). Rats were maintained with free access to food and water under a 12:12 h light/dark cycle for 1 week. For pharmacokinetic studies, under anesthetic conditions (20 mg/kg tiletamine/zolazepam [Zoletil; Vibrac Laboratories, Carros, France] administered intramuscularly), the femoral vein and artery were surgically cannulated using polyethylene tubing (PE50; Clay Adams, Parsippany, NJ, USA) in fasted rats. Then, PCiv was administered intravenously and orally at a dose of 10 mg/kg (n = 4–5). The drug was dissolved in a vehicle (DMSO:PEG400:saline at a ratio of 5:70:25). Blood samples (approximately 100 μL) were collected at predetermined time points (0, 1, 5 (intravenous administration only), 15, 30, 60, 120, 180, 240, 360, and 480 min) after drug administration. To prevent blood clots and fluid loss, the cannula to the femoral artery was flushed with 20 IU/mL heparinized saline, and the same volume of saline was pushed to the cannula for the femoral vein. The plasma fraction was immediately obtained after centrifugation at 14,000 rpm for 15 min at 4 °C and then stored at −20 °C prior to analysis using the ultra-high-performance liquid chromatography (UHPLC)-diode array detector (DAD) method. Similarly, a tissue distribution study was performed 15 min after the intravenous bolus injection (10 mg/kg), as previously described. Four major tissues, including tissues from the brain, heart, kidneys, and liver, were collected. Based on the wet weights of the tissue samples, a two-fold volume of PBS was added and homogenized. The tissue homogenates were stored at −20 °C before UHPLC-DAD analysis. The UHPLC-DAD system consisted of an Agilent Technologies 1290 Infinity II equipped with a DAD (G7117A), an autosampler (G71678B), a binary pump (G7104A), and a multicolumn thermostat (G7116B). The PCiv level was determined using a CapcellpakTM C18 5 μm column (250 × 1.5 mm, Shiseido Fine Chemical Co., Tokyo, Japan), as previously described. The mobile phase was composed of 0.1% phosphoric acid and acetonitrile and eluted in the gradient mode at a flow rate of 0.2 mL/min. A DAD detector was applied at 321 nm, with an injection volume of 10 μL. The calibration range was 20–10,000 ng/mL with good linearity (R = 0.99783 with 1/× weighting). The tissue concentration levels were calculated as the PCiv amount (ng) per gram of organ weight.

**Q.** For `C/C=C(\C)C(=O)O[C@@H]1c2c(ccc3ccc(=O)oc23)OC(C)(C)[C@H]1OC(C)=O` (relative stereo) [PCiii, peucedanocoumarin III], which brain distribution [1] is on record?
**A.** demonstrated brain distribution

**Q.** For `C/C=C(\C)C(=O)O[C@H]1[C@H](OC(C)=O)c2c(ccc3ccc(=O)oc23)OC1(C)C` (relative stereo) [PCiv, trans-4′-acetyl-3′-tigloylkhellactone], which “dissolution in vehicle solution” value [2] is on record?
**A.** well-dissolved

**Q.** What about the half-life ([3]; Sprague-Dawley, rat, plasma, iv, intravenous, read-out: mean half-life) of the same compound?
**A.** 1.43 h

**Q.** What about the half-life ([3]; Sprague-Dawley, rat, plasma, po, oral administration, read-out: half-life) of the same compound?
**A.** ~1.62 h

**Q.** And the bioavailability ([3]; Sprague-Dawley, rat, plasma, po, oral, read-out: absolute bioavailability)?
**A.** 9.96%

**Q.** What about the Vd ([3]; Sprague-Dawley, rat, plasma, intravenous, read-out: mean steady-state volume of distribution) of the same compound?
**A.** 6.62 L/kg

**Q.** What about the clearance ([3]; Sprague-Dawley, rat, plasma, intravenous, read-out: mean systemic total clearance) of the same compound?
**A.** 136 mL/min/kg

**Q.** And the absolute bioavailability ([3]; oral)?
**A.** ~10%

**Q.** And the maximum concentration ([3]; oral)?
**A.** low
